Test results: ChEMBL document CHEMBL3826976, “New Insights into Human 17β-Hydroxysteroid Dehydrogenase Type 14: First Crystal Structures in Complex with a Steroidal Ligand and with a Potent Nonsteroidal Inhibitor” (J Med Chem, 2016)

Target: T1, 17-beta-hydroxysteroid dehydrogenase 14 (Homo sapiens) (UniProt Q9BPX1)
T1 sequence (whole entry): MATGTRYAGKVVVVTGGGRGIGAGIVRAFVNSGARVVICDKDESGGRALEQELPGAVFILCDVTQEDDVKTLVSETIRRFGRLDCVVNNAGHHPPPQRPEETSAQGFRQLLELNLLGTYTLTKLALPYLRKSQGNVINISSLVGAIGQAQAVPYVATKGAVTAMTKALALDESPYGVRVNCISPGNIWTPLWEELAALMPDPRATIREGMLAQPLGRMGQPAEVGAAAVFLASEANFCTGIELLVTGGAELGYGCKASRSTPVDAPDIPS
Description: Binding affinity to human 17-beta-HSD14 assessed as change in melting temperature at 0.25 mM by thermal shift assay

## C[C@]12CC[C@@H]3c4ccc(O)cc4CC[C@H]3[C@@H]1CC[C@@H]2O
  ΔTm: 1.5 °C

## C[C@]12CC[C@@H]3c4ccc(O)cc4CC[C@H]3[C@@H]1CCC2=O
  ΔTm: 1.5 °C
